Several values for one entry are separate records, joined by “and”; a condition that tells them apart may be missing. Equal entries are not always repeated. Where two headings read alike, the source gives them in different places.
Key:
[1] = target: T1, human p38α MAPK (Homo sapiens, UniProt Q16539); experiment: biochemical; settings: p38α MAPK IC50 ± SEM, two independent experiments, each in triplicate
Description: (§1) The inhibitory activities against human p38α MAPK were evaluated using the commercially available ADP-Glo Kinase Assay (Promega, Inc., USA).
(§2) For the reference sample, 1% [v/v] DMSO replaced the inhibitor solution. […] The enzyme reaction was started with the addition of the enzyme solution. The DMSO concentration in the test solution was maintained at 1% [v/v]. The plate was incubated for 60 min. Then 5 μL of ADP-Glo reagent was added, followed by a 40 min incubation at room temperature. […] All incubations were performed at room temperature. The RA and IC50 values were calculated as described above (ChEs inhibitory potency).

[2] = test system: hAChE
[3] = target: T2, hBChE (Homo sapiens, UniProt P06276); experiment: biochemical; settings: hBChE IC50 ± SEM, two independent experiments, each in triplicate
T2 sequence (P06276 29-602): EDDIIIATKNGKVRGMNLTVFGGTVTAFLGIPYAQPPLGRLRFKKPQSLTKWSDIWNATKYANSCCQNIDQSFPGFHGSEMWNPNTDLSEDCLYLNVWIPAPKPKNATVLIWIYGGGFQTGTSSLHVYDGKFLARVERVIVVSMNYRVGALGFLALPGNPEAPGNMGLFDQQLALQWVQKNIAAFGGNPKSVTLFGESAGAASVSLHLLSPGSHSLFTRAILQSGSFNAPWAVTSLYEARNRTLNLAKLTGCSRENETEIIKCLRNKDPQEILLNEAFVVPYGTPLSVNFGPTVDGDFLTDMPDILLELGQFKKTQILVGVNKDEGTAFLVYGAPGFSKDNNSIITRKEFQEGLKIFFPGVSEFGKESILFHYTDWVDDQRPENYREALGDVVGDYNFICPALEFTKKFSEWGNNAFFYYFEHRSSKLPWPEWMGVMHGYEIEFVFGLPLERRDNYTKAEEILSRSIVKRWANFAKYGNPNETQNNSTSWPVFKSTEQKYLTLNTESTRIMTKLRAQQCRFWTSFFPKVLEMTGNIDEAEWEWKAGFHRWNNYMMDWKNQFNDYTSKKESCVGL
Description: (§3) The inhibitory potencies of the compounds against the ChEs were determined using the method of Ellman. […] The final content of DMSO was always 1% [v/v]. […] The initial velocities in the presence (v i ) and absence (v 0) of the test compounds were calculated. The inhibitory potencies were expressed as the residual activities, according to RA = (v i – b)/(v 0 – b), where b is the blank value using phosphate buffer without ChEs. For IC50 determinations, at least seven different concentrations for each compound were used. The IC50 values were obtained by plotting the residual ChE activities against the applied inhibitor concentrations, with the experimental data fitted to a four-parameter logistic function (GraphPad Prism 10.0).

[4] = test system: hAChE; remark: listed apart in the source
[5] = target: hBChE
[6] = target: T3, hAChE (Homo sapiens, UniProt P22303); settings: residual activity at 100 μM; mean ± SD, one experiment in triplicate
T3 sequence (P22303 32-614): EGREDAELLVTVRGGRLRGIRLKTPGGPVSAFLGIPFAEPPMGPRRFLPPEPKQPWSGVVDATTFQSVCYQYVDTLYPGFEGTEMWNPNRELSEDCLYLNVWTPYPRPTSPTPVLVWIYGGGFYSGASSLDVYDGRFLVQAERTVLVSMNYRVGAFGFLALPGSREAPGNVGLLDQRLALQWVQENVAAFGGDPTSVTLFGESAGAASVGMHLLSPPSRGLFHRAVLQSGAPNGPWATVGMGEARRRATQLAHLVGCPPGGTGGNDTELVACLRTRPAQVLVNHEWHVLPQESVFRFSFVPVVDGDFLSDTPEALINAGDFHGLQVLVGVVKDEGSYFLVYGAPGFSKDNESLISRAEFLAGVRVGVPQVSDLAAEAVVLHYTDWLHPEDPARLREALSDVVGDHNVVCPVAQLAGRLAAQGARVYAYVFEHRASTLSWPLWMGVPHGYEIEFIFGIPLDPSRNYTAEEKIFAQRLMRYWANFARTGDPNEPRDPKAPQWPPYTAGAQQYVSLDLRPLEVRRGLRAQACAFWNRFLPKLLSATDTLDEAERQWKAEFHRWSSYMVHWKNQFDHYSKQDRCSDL
Description: as §3

[7] = target: hBChE; remark: listed apart in the source
[8] = target: p38α MAPK
[9] = target: p38α MAPK; remark: listed apart in the source
[10] = target: T1, human p38α MAPK; settings: for p38α MAPK RA at 100 μM: residual activity at 100 μM, mean ± SD, one experiment in triplicate
Description: as §1, §2

[11] = target: T3, hAChE; experiment: biochemical; settings: hAChE IC50 ± SEM, two independent experiments, each in triplicate
Description: as §3

[12] = target: T2, hBChE; settings: read-out: hBChE IC50 ± SEM; two independent experiments, each in triplicate
Description: as §3

T1 sequence (Q16539 whole entry): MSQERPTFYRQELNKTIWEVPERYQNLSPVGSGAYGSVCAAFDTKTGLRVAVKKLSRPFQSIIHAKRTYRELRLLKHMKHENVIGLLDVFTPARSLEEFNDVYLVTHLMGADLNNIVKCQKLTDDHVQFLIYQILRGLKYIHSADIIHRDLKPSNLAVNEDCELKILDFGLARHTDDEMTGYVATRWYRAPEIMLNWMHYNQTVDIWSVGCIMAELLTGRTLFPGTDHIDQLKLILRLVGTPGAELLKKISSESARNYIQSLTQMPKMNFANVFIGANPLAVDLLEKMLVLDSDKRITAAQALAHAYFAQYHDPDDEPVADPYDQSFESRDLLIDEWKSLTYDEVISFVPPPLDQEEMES

Row | Compound | IC50 [1] | IC50 [3] | RA at 100 µM [4] | hAChE RA at 100 μM [6] | IC50 [7] | IC50 [4] | IC50 [9] | IC50 [11] | other results
1 | CC(C)Cn1ncc2cc(Sc3ccc(F)cc3F)c(C(=O)NCCN(C)C)cc21 [Compound 92, 5-((2,4-Difluorophenyl)thio)-N-(2-(dimethylamino)ethyl)-1-isobutyl-1H-indazole-6-carboxamide] | 0.053 ± 0.017 µM | 2.25 µM | 62.8 ± 3.0% | 62.8% and 63 ± 3% and 62.8 ± 3.0% | 2.25 µM |  |  |  | RA at 100 µM [2]: 63 ± 3%; IC50 [5]: 2.25 µM; IC50 [8]: 0.053 µM
2 | CC(C)Cn1ncc2cc(Oc3ccc(F)cc3)c(C(=O)NCCN(C)C)cc21 [Compound 88, N-(2-(Dimethylamino)ethyl)-5-(4-fluorophenoxy)-1-isobutyl-1H-indazole-6-carboxamide] | 0.276 ± 0.015 µM | 6.38 ± 0.511 µM |  |  | 6.38 µM | 71.3 µM | 0.276 µM |  | 
3 | CC(C)Cn1ncc2cc(Oc3ccc4ccccc4c3)c(C(=O)NCCN(C)C)cc21 [Compound 90, N-(2-(Dimethylamino)ethyl)-1-isobutyl-5-(naphthalen-2-yloxy)-1H-indazole-6-carboxamide] |  | 11.5 ± 2 µM |  |  |  | 116 µM |  | 116 ± 27.8 µM | p38α MAPK RA at 100 μM [10]: 9.5 ± 0.6%; RA at 100 µM [9]: 9.5 ± 0.6%
4 | 5-(2,4-Difluorobenzyl)-N-(2-(dimethylamino)ethyl)-1-methyl-2H-indazole-6-carboxamide [Compound 109] |  |  |  | 81.4 ± 7.5% |  |  |  |  | p38α MAPK RA at 100 μM [10]: 89.6% and 89.6 ± 13.6%; IC50 [12]: 1.06 ± 0.97 µM
5 | O=C(NCCn1cccc1)c1cc2c(cnn2CC2CCCCC2)cc1Oc1ccc(F)cc1F [Compound 81, N-(2-(1H-Pyrrol-1-yl)ethyl)-1-(cyclohexylmethyl)-5-(2,4-difluorophenoxy)-1H-indazole-6-carboxamide] |  |  | 58.7 ± 3.6% | 58.7% and 58.7 ± 3.6% | 80 µM |  | 75.8 µM |  | 
6 | O=C(NCCN1CCOCC1)c1cc2nn(CC3CCCCC3)cc2cc1Oc1ccc(F)cc1F [Compound 103] |  | 10.8 ± 2.07 µM | 78.3 ± 2.1% | 78.3 ± 2.1% | 10.8 µM |  |  |  | p38α MAPK RA at 100 μM [10]: 66.8% and 66.8 ± 5.9%; RA at 100 µM [9]: 66.8 ± 5.9%
7 | O/N=C/c1cc[n+](COC[n+]2ccc(/C=N/O)cc2)cc1 [Obidoxime, reference compound] |  |  |  |  |  |  |  |  | CNS (+/–) (predicted BBB permeation from Pe): CNS– (CNS– indicates low predicted BBB permeation [Pe (×10–6 cm/s) < 2.0])
8 | O=C(NCCN1CCOCC1)c1cc2c(cnn2CC2CCCCC2)cc1Oc1ccc(F)cc1F [Compound 80, 1-(Cyclohexylmethyl)-5-(2,4-difluorophenoxy)-N-(2-morpholinoethyl)-1H-indazole-6-carboxamide] |  |  | 51.9 ± 1.7% | 51.9% and 51.9 ± 1.7% | 5.22 µM |  | 0.744 µM |  | 
9 | CN(C)CCNC(=O)c1cc2c(cnn2CC2CCCCC2)cc1Oc1ccc(F)cc1F [Compound 75, 1-(Cyclohexylmethyl)-5-(2,4-difluorophenoxy)-N-(2-(dimethylamino)ethyl)-1H-indazole-6-carboxamide] | 0.142 ± 0.079 µM | 2.89 µM and 2.9 µM |  |  |  | 64.4 µM |  | 64.4 ± 24.5 µM | IC50 [2]: 64.4 µM; IC50 [8]: 0.142 µM
10 | CN(C)CCCNC(=O)c1cc2nn(CC3CCCCC3)cc2cc1Oc1ccc(F)cc1F [Compound 100, 2-(Cyclohexylmethyl)-5-(2,4-difluorophenoxy)-N-(3-(dimethylamino)propyl)-2H-indazole-6-carboxamide] | 16.2 ± 2.97 µM | 0.499 ± 0.045 µM |  |  |  | 41.9 µM | 16.2 µM | 41.9 ± 13.9 µM | 
11 | CN(C)CCNC(=O)c1cc2c(cnn2C2C=CCCC2)cc1Oc1ccc(F)cc1F (stereo not drawn) [Compound 83, 1-(Cyclohex-2-en-1-yl)-5-(2,4-difluorophenoxy)-N-(2-(dimethylamino)ethyl)-1H-indazole-6-carboxamide] | 0.088 ± 0.02 µM | 8.35 µM | 52.9 ± 2.7% | 52.9% and 53 ± 3% and 52.9 ± 2.7% | 8.35 µM |  |  |  | RA at 100 µM [2]: 53 ± 3%; IC50 [5]: 8.35 µM; IC50 [8]: 0.088 µM
12 | COCC1CCCN(CCNC(=O)c2cc3c(cnn3CC3CCCCC3)cc2Oc2ccc(F)cc2F)C1 (racemic) [Compound 79, (±)-1-(Cyclohexylmethyl)-5-(2,4-difluorophenoxy)-N-(2-(3-(methoxymethyl)piperidin-1-yl)ethyl)-1H-indazole-6-carboxamide] | 0.379 ± 0.126 µM | 3.6 ± 0.825 µM | *11.6 ± 1.3% |  | 3.6 µM |  | 0.379 µM |  | 
13 | CN(C)CCNC(=O)c1cc2c(cnn2CC2CC2)cc1Oc1ccc(F)cc1F [Compound 73, 1-(Cyclopropylmethyl)-5-(2,4-difluorophenoxy)-N-(2-(dimethylamino)ethyl)-1H-indazole-6-carboxamide] | 0.362 ± 0.139 µM | 10.5 ± 1.51 µM |  |  |  |  |  | 83.9 ± 28.9 µM | IC50 [2]: 83.9 µM; IC50 [8]: 0.362 µM
14 | CN(C)CCNC(=O)c1cc2nn(CC3CCCCC3)cc2cc1Oc1ccc(F)cc1F [Compound 99, 2-(Cyclohexylmethyl)-5-(2,4-difluorophenoxy)-N-(2-(dimethylamino)ethyl)-2H-indazole-6-carboxamide] | 6.78 ± 2.85 µM | 0.167 ± 0.0203 µM |  |  |  |  |  | 28.9 ± 8.16 µM | IC50 [2]: 28.9 µM; IC50 [8]: 6.78 µM
15 | COC1CCCN(CCNC(=O)c2cc3nn(CC4CCCCC4)cc3cc2Oc2ccc(F)cc2F)C1 (stereo not drawn) [Compound 101] |  | 0.184 ± 0.031 µM | 51.8 ± 1.6% | 51.8 ± 1.6% | 0.184 µM |  |  |  | p38α MAPK RA at 100 μM [10]: 94.3% and 94.3 ± 2.4%; RA at 100 µM [9]: 94.3 ± 2.4%
16 | CO/N=C(\C(=O)N[C@@H]1C(=O)N2C(C(=O)O)=C(COC(N)=O)CS[C@H]12)c1ccco1 [Cefuroxime, reference compound] |  |  |  |  |  |  |  |  | CNS (+/–) (PAMPA): CNS– (key: CNS+ indicates high predicted BBB permeation [Pe (×10–6 cm/s) > 4.0]; CNS– indicates low predicted BBB permeation [Pe (×10–6 cm/s) < 2.0])
17 | CC(C)Cn1ncc2cc(Oc3cccc4ccccc34)c(C(=O)NCCN(C)C)cc21 [Compound 89, N-(2-(Dimethylamino)ethyl)-1-isobutyl-5-(naphthalen-1-yloxy)-1H-indazole-6-carboxamide] |  | 10.6 µM |  |  |  | 61.3 µM |  | 61.3 µM | IC50 [2]: 61.3 µM; p38α MAPK RA (1 μM) ([10]; residual activity at 1 μM): 24 ± 0%; p38α MAPK RA (10 μM) ([10]; residual activity at 10 μM): 5 ± 0%; p38α MAPK RA at 100 μM [10]: 0.9 ± 0.3% and 1 ± 0%; RA at 100 µM [9]: 0.9 ± 0.3%; RA (1 μM) [8]: RA (1 μM): 24 ± 0%; RA (10 μM) [8]: RA (10 μM): 5 ± 0%; RA (100 μM) [8]: RA (100 μM): 1 ± 0%
18 | O=C(NCCn1ccnc1)c1cc2c(cnn2CC2CCCCC2)cc1Oc1ccc(F)cc1F [Compound 82, N-(2-(1H-Imidazol-1-yl)ethyl)-1-(cyclohexylmethyl)-5-(2,4-difluorophenoxy)-1H-indazole-6-carboxamide] | 0.218 ± 0.017 µM | 18.7 ± 6.1 µM | 65.1 ± 2.5% | 65.1% and 65.1 ± 2.5% | 18.7 µM |  | 0.218 µM |  | 
19 | CN(C)CCCNC(=O)c1cc2c(cnn2CC2CC2)cc1Oc1ccc(F)cc1F [Compound 74, 1-(Cyclopropylmethyl)-5-(2,4-difluorophenoxy)-N-(3-(dimethylamino)propyl)-1H-indazole-6-carboxamide] | 0.096 ± 0.011 µM | 8.68 ± 1.83 µM |  |  |  | 110 µM | 0.096 µM | 110 ± 38.4 µM | 

From publication PMC12406203 (Journal of Medicinal Chemistry, 2025)
